Here are results for twelve compounds from ChEMBL document CHEMBL1130730, “Immunomodulatory activity of thunberginol A and related compounds isolated from Hydrangeae Dulcis Folium on splenocyte proliferation activated by mitogens” (Bioorg Med Chem Lett, 1998).

Active and inactive are the calls of the source. The rule behind the calls is not given here.

The species named for assay [1] is Mus musculus. The assay is described as follows: Tested for inhibitory activity against T lymphocyte proliferation induced by Con A at 10e-5 M; slightly suppressed the proliferation. It is filed as functional.
The species entered for assay [2] is Mus musculus. Briefly: Tested for inhibitory activity against B lymphocyte proliferation induced by LPS at 10e-5 M; significantly potentiated the proliferation. It is filed as functional.
For assay [3], the species on record is Mus musculus. The assay is described as follows: Tested for inhibitory activity against T lymphocyte proliferation induced by PHA; showed no suppressive effect. It is filed as functional.
The species entered for assay [4] is Mus musculus. The assay is described as follows: Tested for inhibitory activity against T lymphocyte proliferation induced by PHA at 10e-7 M; showed potent suppressive effect. It is filed as functional.
The species named for assay [5] is Mus musculus. The assay is described as follows: Tested for inhibitory activity against B lymphocyte proliferation induced by LPS at 10e-7 M; suppressed the proliferation. It counts as functional.
For assay [6], the species on record is Mus musculus. The assay is described as follows: Tested for inhibitory activity against T lymphocyte proliferation induced by Con A at 10e-7 M; showed potent suppressive effect. It counts as functional.
Assay [7] relates to Rattus norvegicus. The assay is described as follows: Tested for in vivo inhibitory activity against asthmatic bronchoconstriction in rats induced by antigen-antibody reaction; showed inhibition. It is filed as functional, organism-based.
The species named for assay [8] is Mus musculus. The assay is described as follows: Tested for inhibitory activity against B lymphocyte proliferation induced by LPS at 10e-5 M; significantly suppressed the proliferation. It counts as functional.
Assay [9] relates to Rattus norvegicus. The assay is described as follows: Tested for […] inhibitory activity against type 1 allergic reactions after oral administration; showed inhibition. It counts as functional, organism-based.
In assay [10] the test system is Mus musculus. Briefly: Tested for inhibitory activity against contact ear dermatitis in mice induced by dinitrofluorobenzene by consecutive oral administration in the primary sensitizing phase; showed inhibition. It counts as functional, organism-based.
The test system of assay [11] is Rattus norvegicus. The assay is described as follows: Tested for in vivo inhibitory activity against passive cutaneous anaphylaxis (PCA) reaction in rats; showed inhibition. It counts as functional, organism-based.
The species named for assay [12] is Mus musculus. Briefly: Tested for inhibitory activity against T lymphocyte proliferation induced by Con A at 10e-6 to 10e-5 M; significantly suppressed the proliferation. It is filed as functional.
The test system of assay [13] is Mus musculus. Briefly: Tested for inhibitory activity against hind paw edema sensitized with sheep red blood cells (SRBC) in both sensitizing and inflammatory phases after oral administration; showed reduction.

`O=C1OC(c2ccc(O)c(O)c2)Cc2cc(O)cc(O)c21` (stereo not drawn): the Activity result in assay [1], in assay [2] and in assay [3] was “no suppressive effect” each time.
Turning to `COc1ccc([C@H]2Cc3cccc(O)c3C(=O)O2)cc1O`, the Activity result in assay [1] and in assay [2] was “significantly potentiated the proliferation” throughout.
With `O=C(O)c1c(O)cccc1/C=C/c1ccc(O)c(O)c1`, the Activity result in [2] and in assay [3] was “no suppressive effect” in each case.
On to `COc1ccc([C@H]2Cc3cc(O)cc(O)c3C(=O)O2)cc1O`, for which the Activity entry in assay [1] and in [2] was “significantly potentiated the proliferation” throughout.
`O=c1oc(-c2ccc(O)cc2)cc2cccc(O)c12`: the Activity result in assay [2] and in [3] was “no suppressive effect” in each case.
Turning to `O=C1OC(c2ccc(O)cc2)Cc2cc(O)cc(O)c21` (stereo not drawn), the Activity entry in [1], in assay [2] and in [3] was “no suppressive effect” each time.
As to `O=c1oc(-c2ccc(O)c(O)c2)cc2cc(O)cc(O)c12`, the Activity result in assay [2] and in assay [3] was “no suppressive effect” in each case.
Consider `O=C1O/C(=C\c2ccc(O)c(O)c2)c2cccc(O)c21`, for which the Activity entry in assay [2] and in assay [3] was “no suppressive effect” throughout.
As for `C[C@]12CCC(=O)C=C1CCC1[C@@H]2[C@@H](O)C[C@@]2(C)[C@H]1CC[C@]2(O)C(=O)CO` (single isomer, unassigned), the outcome in assay [4], in assay [5] and in assay [6] was Active.
Take `O=C1OC(c2ccc(O)c(O)c2)Cc2cccc(O)c21` (stereo not drawn): the Activity result in [1], in [2] and in assay [3] was “no suppressive effect” in each case.
In the case of `O=C1OC(c2ccc(O)cc2)Cc2cccc(O)c21` (stereo not drawn), the Activity result in assay [2] and in assay [3] was “no suppressive effect” each time.
On to `O=c1oc(-c2ccc(O)c(O)c2)cc2cccc(O)c12`, for which the Activity entry in [7], in assay [8], in assay [9], in [10], in [11] and in [12] was “inhibition” each time. Besides, in [13], the Activity result is given as “inhibition”.
